Key:
[1] = test system: OCT-like uptake in L. salivarius biofilms; test: ASP+ fluorophore uptake (OCT-like) in L. salivarius biofilms; format: cell-based, Lactobacillus salivarius; conditions: for inhibition of ASP+ uptake: early and late biofilms
Description: (§1) At the start of the assay, 0.2 ml of stationary phase overnight bacterial growth was inoculated into 9.8 ml of pre-warmed MRS, thoroughly mixed, and 0.2 ml aliquots added to individual wells of Corning flat clear-bottomed 96 well microplates (product #3904, Corning, Inc., Corning, NY, USA). Plates were then placed into a 37° C. humidified incubator. Following static incubation for either 6 or 24 hours, plates were removed from the incubator and the well supernatants were gently removed leaving the bacterial biofilm intact on the bottom surface of the individual clear plate wells. Subsequently, the PMAT-specific fluorophore IDT307 (Molecular Devices) or the OCT-specific fluorophore ASP^+ (Sigma-Aldrich) dissolved in IMDM and pre-warmed to 37° C. was gently added to appropriate wells (added along the well side so as not to disturb the biofilm). The plate was immediately placed into a BioTek Synergy H1 reader (Winooski, VT, USA) and measured using Gen5 software at the time intervals shown in the FIGS. 4-7. All assays were done at 37° C. unless otherwise noted and reads were performed as bottom fluorescence in relative fluorescence units (RFU). For IDT307, the chemical and masking dye were supplied pre-measured and the amount of IMDM used as a diluent was the same as indicated for the use of HBSS. […] Drug Metab Dispos. 2015; 43(11):1773-80, herein incorporated by reference, with the minor modification that the fluorophore/masking dye combination were prepared as follows: 100 μl of a 2 mg ASP^+ stock solution per ml of distilled water was first added to 9.9 ml of IMDM and mixed, followed by the addition of 10 μl of a 10 mM Trypan blue solution. The excitation/emission wavelengths used for IDT307 and ASP^+, respectively, were 440 nm/520 nm and 475 nm/609 nm.
(§2) Plates were prepared as above in Example 4 and following 6 hours (FIGS. 8A and B for PMAT and OCT respectively) or 24 hours (FIGS. 8C and D for PMAT and OCT respectively) of incubation the media was gently removed and replaced with 100 μl of pre-warmed IMDM media with or without different concentrations of fluoxetine. The concentrations of fluoxetine were 0.3125 mM, 0.625 mM, 1.25 mM, or 2.5 mM. The plate was then incubated at 37° C. for 30 minutes. Following incubation, 100 μl of pre-warmed fluorophore was added to the appropriate wells. The plate was then immediate placed into the fluorescence reader and measured at 37° C.
(§3) Two other antidepressant drugs that are chemically unrelated to fluoxetine, duloxetine and amitriptyline, were tested for their action on PMAT- and OCT-like functionalities in Lactobacilli to determine if they may also be used as inhibitors. Cells were grown in 96-well plates for 24 hours to allow for biofilm formation as above. […] IDT307 or ASP^+ was then used to measure the effects of each antidepressant drug on the cells ability to take up the fluorophore.

[2] = test system: PMAT-like uptake in L. salivarius biofilms; test: IDT307 fluorophore uptake (PMAT-like) in L. salivarius biofilms; format: cell-based, Lactobacillus salivarius; conditions: for attenuation of IDT307 fluorophore uptake: 1 mg/ml, 24 hour biofilm; for uptake of IDT307-associated fluorescence: 100 μM; for inhibition of IDT307 uptake: early and late biofilms
Source text: For measurement of PMAT-like function, the IDT307 fluorophore-based Neurotransmitter Uptake Assay Kit (product #R8173, Molecular Devices, Sunnyvale, CA, USA) was used with modification. As it is intended for studies with mammalian cells, the kit recommends the use of phenol red-free Hank's Balanced Salt Solution (HBSS). Phenol red-free Iscove's Modified Dulbecco's Medium (IMDM; product #21056-023, Life Technologies, Carlsbad, CA, USA) was substituted for HBSS. […] IMDM was selected as it is a nutrient-rich, protein-free medium used in tissue culture that allows for robust growth of a wide variety of bacterial species in the absence of any protein additives common to most microbiology media.
as §1, §2, §3

[3] = test system: OCT-like uptake in L. reuteri; test: ASP+ fluorophore uptake (OCT-like) in L. reuteri; format: cell-based, Lactobacillus reuteri; conditions: for attenuation of ASP+ fluorophore uptake: 2 mg/ml, 24 hour biofilm
Source text: The fluorophore ASP^+[4-(4-(diethylamino)styryl)-N-methylpyridinium iodide] was obtained from Sigma Chemical Company (Sigma #D4318) and used as described in Duan et al., Drug Metabolism and Disposition, volume 43, pages 1773-1780, 2015 (herein incorporated by reference) with a slight modification in the ratio of ASP^+ and Trypan blue used.
To verify if OCT-like uptake was responsible for the influx of ASP^+ in Lactobacilli, L. reuteri was pre-treated with D-22, an OCT inhibitor. In brief, Lactobacilli reuteri (obtained from American Type Culture Collection, #23272) were grown overnight at 37° C. in an aerobic environment in flat-bottomed 96-well plates in MRS medium. Following overnight incubation, the medium in each well was carefully removed in order to not overtly disturb the biofilm and a final concentration of 20 μM D-22 dissolved in IMDM or control medium was added. The plate was then incubated for 20 minutes at 37° C. in an aerobic environment. Next, ASP^+ fluorophore dissolved in IMDM was added and the plate was then placed into a BioTek Synergy H1 plate reader at 37° C. and read continuously for a total of 6 hours.
as §3

recombinant PMAT = target: T1, recombinant PMAT (Homo sapiens, UniProt Q7RTT9); conditions: 20 μM, HEK293 embryonic kidney cells; cited from earlier work
T1 construct: host or cells: HEK293 embryonic kidney cells (transfected, in the earlier report)
T1 sequence (Q7RTT9 1-530): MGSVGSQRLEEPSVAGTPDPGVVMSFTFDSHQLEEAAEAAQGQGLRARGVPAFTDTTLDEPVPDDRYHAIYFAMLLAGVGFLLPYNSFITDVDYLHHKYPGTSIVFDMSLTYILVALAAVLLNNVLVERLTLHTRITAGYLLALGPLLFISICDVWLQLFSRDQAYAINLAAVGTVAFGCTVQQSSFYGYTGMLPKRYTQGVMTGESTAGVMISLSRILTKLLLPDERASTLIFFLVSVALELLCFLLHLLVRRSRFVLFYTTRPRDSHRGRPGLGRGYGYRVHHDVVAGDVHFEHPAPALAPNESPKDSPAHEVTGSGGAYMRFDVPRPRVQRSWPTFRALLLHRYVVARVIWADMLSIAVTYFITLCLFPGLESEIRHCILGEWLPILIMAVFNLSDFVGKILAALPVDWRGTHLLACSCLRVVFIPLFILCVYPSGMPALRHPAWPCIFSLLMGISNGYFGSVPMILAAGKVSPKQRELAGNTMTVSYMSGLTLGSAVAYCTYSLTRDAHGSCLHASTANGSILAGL

recombinant OCTs = conditions: 20 μM, HEK293 embryonic kidney cells; cited from earlier work
[4] = test system: PMAT-like uptake in L. reuteri; conditions: 2 mg/ml, 24 hour biofilm
Description: as §3

[5] = test system: microbial communities of mice; test: In vivo administration of fluoxetine, 16S rRNA sequencing of microbial communities; conditions: male mice, oral, daily for 28 days
Description: Fluoxetine was administered on a daily basis by the oral route to male mice for 28 days in order to determine if any modulation in microbial communities could be obtained.
To classify the microbial communities, the genomes of isolated bacteria were sequenced and compared. Genomic DNA isolation was obtained using the PowerSoil DNA Isolation Kit (MoBio, Carlsbad, CA) on cecal and fecal samples. Assays were performed in accordance with the manufacturer's protocol with the following modifications: samples were incubated at 70° C. for 10 minutes immediately after addition of the C1 solution and the initial vortex step was extended to 20 minutes to thoroughly homogenize the samples. The purified bacterial genomic DNA extracts were quantified using a Qubit 2.0 Fluorometer (Life Technologies, Carlsbad, CA), and stored at −20° C. in 10 mM Tris buffer. For Illumina sequencing, bacterial genomic DNA was amplified using the Earth Microbiome Project barcoded primer set, adapted for the Illumina HiSeq2000 and MiSeq by adding nine extra bases in the adapter region of the forward amplification primer that support paired-end sequencing. The V4 region of the 16S rRNA gene (Illumina, 515F-806R) was amplified with region-specific primers that included the Illumina flowcell adapter sequences. The reverse amplification primer also contained a twelve base barcode sequence that supported pooling of up to 2,167 different samples in each lane. Each 25 μl PCR reaction contained 12 µl of MoBio PCR Water (Certified DNA-Free), 10 μl of 5 Prime HotMasterMix (1×), 1 μl of Forward Primer ([…], […]), 1 μl Golay Barcode Tagged Reverse Primer (5 μM concentration, […]), and […]. The conditions for PCR were as follows: 94° C. for 3 minutes to denature the DNA, with 35 cycles at 94° C. for 45 s, 50° C. for 60 s, and 72° C. for 90 s; with a final extension of 10 min at 72° C. to ensure complete amplification. The PCR amplicons were quantified using PicoGreen (Invitrogen) and a plate reader. Once quantified, different volumes of each of the products were pooled into a single tube so that each amplicon was represented equally. This pool was then cleaned up using UltraClean® PCR Clean-Up Kit (MoBIO), and quantified using the Qubit (Invitrogen). After quantification, the molarity of the pool was determined and diluted down to 2 nM, denatured, and then diluted to a final concentration of […] with a 10% PhiX spike for sequencing on the Illumina MiSeq.
In total, 60 fecal samples, representing 20 samples for each time point (day 0, 15, and 28) with 10 samples for the control and treatment groups, respectively, were used for 16S rRNA gene amplicon sequencing using Illumina MiSeq with 151 bp paired-end sequencing technology. 16S rRNA gene PCR and library preparation and sequencing were completed at the Environmental Sample Preparation and Sequencing Facility at Argonne National Laboratory. Sequence analysis was performed using mothur version 1.39.3 following the mothur MiSeq SOP available at the mothur website. Briefly, contigs were joined with “make.contigs”, reads longer than 250 bp, harboring any ambiguous bases or with more than 8 consecutive homopolymers were excluded using “screen.seqs”. Reads were aligned to the SILVA NR128 reference database. Chimeric sequences were removed with “chimera.uchime” and the remaining reads were clustered into operational taxonomic units (OTUs) using a 97% similarity threshold and taxonomy was assigned to OTUs using the SILVA NR 128 reference database. […] For determination of differences between groups on community level, analysis of molecular variance (AMOVA) and analysis of similarity (ANOSIM) implemented in mothur were used. Heatmaps were generated with JColorGrid. For better taxonomic classification, the OTUs were searched against the 16S rRNA gene sequences of the Mouse Intestinal Bacterial Collection isolates (miBC) using BlastN.

[6] = biofilms established over 24 hours
[7] = concentrations higher than 0.625 mM

CCN(CC)c1ccc(C=Cc2cc[n+](C)cc2)cc1.[I-] [ASP^+, 4-(4-(diethylamino)styryl)-N-methylpyridinium iodide]
time of intracellular fluorescence decay after maximum ([1]; 6 hour biofilms, 37° C.): 2 to 3 h
time to maximum fluorescence intensity ([1]; 6 hour biofilms, 37° C.): < 60 min
residence time of probe in biofilm [1, 6]: > 6 h

CN(C)CCC=C1c2ccccc2CCc2ccccc21 [Amitriptyline, amitriptyline]
attenuation of IDT307 fluorophore uptake [2]: much stronger inhibitory effect
attenuation of ASP+ fluorophore uptake [3]: much stronger inhibitory effect

CN(C)c1ccc(-c2cc[n+](C)cc2)cc1.[I-] [IDT307, 4-[p-(Dimethylamino)phenyl]-1-methylpyridinium iodide]
time of intracellular fluorescence decay after maximum ([2]; 6 hour biofilms, 37° C.): 2 to 3 h
time to maximum fluorescence intensity ([2]; 6 hour biofilms, 37° C.): < 60 min
residence time of probe in biofilm [2, 6]: > 6 h

NC[C@H](O)c1ccc(O)c(O)c1 [NE, norepinephrine]
uptake of IDT307-associated fluorescence ([2]; 6 hour biofilms): markedly inhibited

CCN1/C(=C/c2ccc3ccccc3[n+]2CC)C=Cc2ccccc21.[I-] [decynium-22]
serotonin uptake through recombinant PMAT (recombinant PMAT): block serotonin uptake
peak increase in ASP+ uptake ([1]; 20 μM, early (6 hour) biofilms): blunted
peak increase in IDT307 uptake ([2]; 20 μM, early (6 hour) biofilms): blunted
ability of the ASP+ fluorophore to enter into the cells (fluorescence) ([3]; 20 μM, 20 min pre-incubation, overnight biofilm, read 6 hours, all time points): reduced the ability of the ASP^+ fluorophore to enter into the cells
serotonin uptake through recombinant OCTs (recombinant OCTs): block serotonin uptake

CNCC[C@H](Oc1cccc2ccccc12)c1cccs1 [duloxetine]
attenuation of ASP+ fluorophore uptake ([1]; 1 mg/ml, 24 hour biofilm): some attenuation
attenuation of IDT307 fluorophore uptake [4]: larger attenuation of fluorophore uptake
attenuation of IDT307 fluorophore uptake [2]: some attenuation
attenuation of ASP+ fluorophore uptake [3]: larger attenuation of fluorophore uptake

CNCCC(Oc1ccc(C(F)(F)F)cc1)c1ccccc1 (stereo not drawn) [fluoxetine]
inhibition of ASP+ uptake ([1]; concentrations below 0.625 mM): concentration-dependent inhibition
inhibition of ASP+ uptake [1, 7]: total inhibition
inhibition of IDT307 uptake ([2]; concentrations below 0.625 mM): concentration-dependent inhibition
inhibition of IDT307 uptake [2, 7]: total inhibition
overall effect on microbial communities [5]: shift of microbial communities towards dysbiosis
decrease of Lactobacillus OTU17 abundance under treatment ([5]; fecal samples): 7.4 fold
number of OTUs different between control and fluoxetine group ([5]; fecal samples): 121 OTUs
species richness and diversity estimators vs control group ([5]; fecal samples): No statistical significant differences
abundance of Firmicutes relative to Bacteroidetes ([5]; phylum level): trended (p=0.08) to be more abundant than Bacteroidetes
whole community level comparison with control (AMOVA and ANOSIM) ([5]; p=0.02 and p=0.05): statistically significant differences

NCCc1c[nH]c2ccc(O)cc12 [serotonin]
uptake of IDT307-associated fluorescence ([2]; 6 hour biofilms): markedly inhibited

O=NO [sodium nitrite]
uptake of IDT307-associated fluorescence ([2]; 6 hour biofilms): inhibited the rapid rise in IDT307-associated fluorescence

From patent publication US12152270B2, “Neurotransmitter transport in probiotics” (Iowa State University Research Foundation, Inc., priority 2017, dated 2024)
